{"source": "patent US5556942A", "about": "“Glutathione S-transferase-activated compounds” (priority 1994, dated 1996)", "key": {"[1]": {"details": "no GST; compound 300 μM; disappearance by HPLC", "method": "(§1) The compound to be tested was dissolved in 0.2M phosphate buffer and a solution of GST was added. The final concentration was 0.3 mM test compound and 0.006 mM GST, pH 7.3 for TER 230; for TER 231 GST was 0,003 mM, pH 7.1. The solution was incubated at 37°. Decomposition was followed by HPLC. The column was J. T. Baker C18 250×4.6 mm with 5μ particles. The A buffer was 0.05M ammonium acetate, pH 5.5; 5% CH3 CN; B buffer was 70% CH3 CN in A.\n(§2) The column was run with a gradient of 20%-50% B over 15 min. then to 100% B in 3 mins; then back to 20% B over 6 mins. A 10 μL sample was injected and the flow rate was 1 ml/min. Aliquots were removed and catalytic decomposition was quenched by addition of acetic acid. Overnight HPLC utilizing an autosampler were used; the rates of decomposition were calculated by measuring the rate of disappearance of the peak versus an internal standard which was 0.06 mM of an inert peptide marker.\n(§3) In addition, half-lives were determined as described above using 3 μM recombinant human GST P1-1, A1-1 or M1a-1a starting with a concentration of the compound to be tested at 300 μM and monitoring disappearance using HPLC."}, "[2]": {"system": "human GST P1-1, A1-1, M1a-1a", "details": "from in vitro half lives with 3 μM GST, 300 μM compound", "method": "as §3"}, "[3]": {"system": "GM-CFU in femoral bone marrow", "method": "In the assay, B6D2F1 mice were treated with various doses of TER 286 intraperitoneally either as a single injection or as five daily injections. Femoral bone marrows were harvested 24 hours later and assayed for GM-CFU by the method of East, C. J. et al. Cancer Chemother Pharmacol (1992) 31:123-126."}, "[4]": {"system": "MCF-7 cells selected for cyclophosphamide resistance (MCF-CTX)", "details": "standard clonogenic assay", "text": "Also tested were MCF-7 cells selected for cyclophosphamide resistance (MCF-CTX) and its wild-type counterpart."}, "MX-1 tumor": {"system": "MX-1 tumor", "details": "single intraperitoneal injection, 300 mg/kg or 400 mg/kg, monitored one month; FIG. 5", "method": "The prodrugs of the invention were tested in Balb/C nu/nv mice. The mice were implanted subcutaneously with MX-1 tumor pieces and then treated with a single intraperitoneal injection once tumors reached an average of 100 mm^3 (which is at approximately day 18 post-implant). Tumor growth and body weight were monitored for one month following treatment. […] In FIG. 5, the squares represent controls; circles represent 300 mg/kg of TER 286; triangles represent 400 mg/kg of the same drug. The points shown are the mean ±SEM of 5-7 mice per group."}, "[5]": {"system": "MCF-7 cells transfected with GST P1-1", "details": "for sensitization of cells with high P1-1 levels compared to control-vector cells: 2 hours treatment, assayed on day 5, FIGS. 4a-4c"}, "[6]": {"biological_target": "T1, recombinant human GST M1a-1a (Homo sapiens, UniProt P09488)", "T1 sequence (P09488 2-218 limits assumed)": "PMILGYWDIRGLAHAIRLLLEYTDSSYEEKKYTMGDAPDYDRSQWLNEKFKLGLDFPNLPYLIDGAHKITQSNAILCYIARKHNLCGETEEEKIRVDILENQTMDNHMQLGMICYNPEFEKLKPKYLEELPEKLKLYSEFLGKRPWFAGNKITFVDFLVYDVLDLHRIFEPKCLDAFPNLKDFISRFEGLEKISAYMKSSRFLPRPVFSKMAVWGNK", "assay": "Decomposition of compound by GST M1a-1a followed by HPLC", "format": "biochemical", "details": "for IN VITRO HALF LIVES, M1a-1a: 3 μM recombinant human GST M1a-1a, compound 300 μM, disappearance by HPLC; for decomposition rate versus background, M1a: 37°", "method": "as §1, §2, §3"}, "[7]": {"biological_target": "recombinant human GST P1-1 (Homo sapiens, UniProt P09211)", "sequence (P09211 2-210 limits assumed)": "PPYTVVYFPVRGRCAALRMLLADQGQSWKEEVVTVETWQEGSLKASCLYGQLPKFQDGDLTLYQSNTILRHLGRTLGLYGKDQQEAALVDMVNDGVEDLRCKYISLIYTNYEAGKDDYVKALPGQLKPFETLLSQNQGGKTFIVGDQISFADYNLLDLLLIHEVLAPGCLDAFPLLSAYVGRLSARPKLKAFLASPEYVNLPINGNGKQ", "assay": "Decomposition of compound by GST P1-1 followed by HPLC", "format": "biochemical", "details": "for IN VITRO HALF LIVES, P1-1: 3 μM recombinant human GST P1-1, compound 300 μM, disappearance by HPLC; for decomposition rate versus background, P1: 37°", "method": "as §1, §2, §3"}, "[8]": {"biological_target": "T2, recombinant human GST A1-1 (Homo sapiens, UniProt P08263)", "T2 sequence (P08263 1-222)": "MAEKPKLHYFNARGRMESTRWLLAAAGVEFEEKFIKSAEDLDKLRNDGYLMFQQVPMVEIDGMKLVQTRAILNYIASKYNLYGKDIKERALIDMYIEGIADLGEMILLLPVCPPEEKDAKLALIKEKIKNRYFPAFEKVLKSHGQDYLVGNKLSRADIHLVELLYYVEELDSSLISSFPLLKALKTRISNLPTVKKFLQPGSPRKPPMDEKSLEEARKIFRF", "assay": "Decomposition of compound by GST A1-1 followed by HPLC", "format": "biochemical", "details": "for IN VITRO HALF LIVES, A1-1: 3 μM recombinant human GST A1-1, compound 300 μM, disappearance by HPLC; for decomposition rate versus background, A1: 37°", "method": "as §1, §2, §3"}, "HT29 human cancer cells": {"system": "HT29 human cancer cells", "details": "preliminary results"}, "[9]": {"details": "TER 286 similarly tested, FIG. 3"}, "[10]": {"details": "0.3 mM TER 231, GST 0,003 mM, pH 7.1, 0.2M phosphate buffer, FIG. 2"}, "[11]": {"details": "0.3 mM TER 230, 0.006 mM GST, pH 7.3, 0.2M phosphate buffer, FIG. 1"}}}
{"molecule": "NC(CCC(=O)NC(CS(=O)(=O)CCOP(=O)(N(CCCl)CCCl)N(CCCl)CCCl)C(=O)N[C@@H](C(=O)O)c1ccccc1)C(=O)O", "note": "(stereo partly drawn) [TER 286, γ-glutamyl-α-Amino-β-((2-ethyl-N,N,N,N-tetra(2'-chloro) ethylphosphoroamidate)sulfonyl)propionyl-(R)-(-)phenylglycine]", "values": [{"measurement": "IN VITRO HALF LIVES, CONTROL", "setting": "[1]", "result": 275, "unit": "min"}, {"measurement": "Selectivity (GST isoenzyme that selectively cleaves the prodrug)", "setting": "[2]", "result": "selectively cleaved by P1-1 and A1-1"}, {"measurement": "GM-CFU, % of controls", "setting": "[3]; mouse, in vivo", "result": "up to 180%"}, {"measurement": "optimum dosage range for bone marrow GM-CFU", "setting": "[3]; mouse, in vivo", "result": "100 to 200", "unit": "mg/kg"}, {"measurement": "factor by which CTX-resistant cells are more sensitive than CTX-sensitive cells", "setting": "[4]", "result": 1.8}, {"measurement": "tumor volume in treated mice compared to controls", "setting": "MX-1 tumor", "result": "greatly diminished"}, {"measurement": "sensitization of cells with high P1-1 levels compared to control-vector cells", "setting": "[5]", "result": 4, "unit": "fold"}, {"measurement": "IN VITRO HALF LIVES, M1a-1a", "setting": "[6]", "result": 225, "unit": "min"}, {"measurement": "acceleration of cleavage versus background, M1a-1a", "setting": "[6]; [9]", "result": "negligible acceleration of cleavage"}, {"measurement": "IN VITRO HALF LIVES, P1-1", "setting": "[7]", "result": 50, "unit": "min"}, {"measurement": "acceleration of cleavage versus background, P1-1", "setting": "[7]; [9]", "result": "roughly six"}, {"measurement": "IN VITRO HALF LIVES, A1-1", "setting": "[8]", "result": 65, "unit": "min"}, {"measurement": "acceleration of cleavage versus background, A1-1", "setting": "[8]; [9]", "result": "roughly six"}]}
{"molecule": "NC(CCC(=O)NC(CS(=O)(=O)CCOP(=O)(N(CCCl)CCCl)N(CCCl)CCCl)C(=O)NCC(=O)O)C(=O)O", "note": "(stereo not drawn) [TER 231, γ-Glutamyl-α-Aminopropionyl (β-(2-ethyl-N,N,N,N-tetra(2'-chloro)ethylphosphoroamidate)sulfonyl)gl ycine]", "values": [{"measurement": "IN VITRO HALF LIVES, CONTROL", "setting": "[1]", "result": 350, "unit": "min"}, {"measurement": "Selectivity (GST isoenzyme that selectively cleaves the prodrug)", "setting": "[2]", "result": "by M1a-1a"}, {"measurement": "toxicity to HT29 cells", "setting": "HT29 human cancer cells", "result": "toxic to these cells"}, {"measurement": "sensitization of cells with high P1-1 levels compared to control-vector cells", "setting": "[5]", "result": 2, "unit": "fold"}, {"measurement": "sensitivity of π-transfected MCF-7 cells versus untransfected cells", "setting": "[5]; π-transfect with elevated P1 GST", "result": "more sensitive"}, {"measurement": "IN VITRO HALF LIVES, M1a-1a", "setting": "[6]", "result": 25, "unit": "min"}, {"measurement": "decomposition rate versus background, M1a", "setting": "[6]; [10]", "result": "about 12 times faster than background"}, {"measurement": "IN VITRO HALF LIVES, P1-1", "setting": "[7]", "result": 110, "unit": "min"}, {"measurement": "decomposition rate versus background, P1", "setting": "[7]; [10]", "result": "5 times faster than background"}, {"measurement": "IN VITRO HALF LIVES, A1-1", "setting": "[8]", "result": 110, "unit": "min"}, {"measurement": "decomposition rate versus background, A1", "setting": "[8]; [10]", "result": "5 times faster than background"}]}
{"molecule": "CCN(CC)P(=O)(OCCS(=O)(=O)CC(NC(=O)CCC(N)C(=O)O)C(=O)NCC(=O)O)N(CC)CC", "note": "(stereo not drawn) [TER 230, γ-glutamyl-α-aminopropionyl (β-(2-ethyl-N,N,N,N,tetraethylphosphoramidate)sulfonyl)-glycine]", "values": [{"measurement": "toxicity to HT29 cells", "setting": "HT29 human cancer cells", "result": "is not"}, {"measurement": "decomposition rate versus background, M1a", "setting": "[6]; [11]", "result": "about 4 times faster than background"}, {"measurement": "decomposition rate versus background, P1", "setting": "[7]; [11]", "result": "about 2 times faster than background"}, {"measurement": "decomposition rate versus background, A1", "setting": "[8]; [11]", "result": "does not accelerate the decomposition of TER 230 above background"}]}
{"molecule": "N[C@@H](Cc1ccc(N(CCCl)CCCl)cc1)C(=O)O", "note": "[melphalan, reference compound]", "values": [{"measurement": "toxicity with respect to bone marrow (GM-CFU)", "setting": "[3]; FIG. 7", "result": "extreme toxicity"}]}
{"molecule": "γ-glutamyl-α-Amino-β-(1-phenyl, (2'ethyl-N,N,N,N-tetra(2'-chloro)ethylphosphoroamidate)sulfonyl) propionyl glycine [TER 296]", "values": [{"measurement": "Selectivity (GST isoenzyme that selectively cleaves the prodrug)", "setting": "[2]", "result": "selectively cleaved by P1-1"}, {"measurement": "IN VITRO HALF LIVES, M1a-1a", "setting": "[6]", "result": 50, "unit": "min"}, {"measurement": "IN VITRO HALF LIVES, P1-1", "setting": "[7]", "result": 2.5, "unit": "min"}, {"measurement": "IN VITRO HALF LIVES, A1-1", "setting": "[8]", "result": 200, "unit": "min"}]}
{"molecule": "γ-glutamyl-α-Amino-β-((2-ethyl-N,N,N,N-tetra(2'-chloro)eth ylphosphoroamidate)sulfonyl)propionylphenylalanine [TER 303]", "values": [{"measurement": "Selectivity (GST isoenzyme that selectively cleaves the prodrug)", "setting": "[2]", "result": "selectively cleaved by A1-1"}, {"measurement": "IN VITRO HALF LIVES, M1a-1a", "setting": "[6]", "result": 200, "unit": "min"}, {"measurement": "IN VITRO HALF LIVES, P1-1", "setting": "[7]", "result": 310, "unit": "min"}, {"measurement": "IN VITRO HALF LIVES, A1-1", "setting": "[8]", "result": 45, "unit": "min"}]}
